Source: ChEMBL document CHEMBL3352031, “Discovery of diamine-linked 17-aroylamido-17-demethoxygeldanamycins as potent Hsp90 inhibitors” (Eur J Med Chem, 2014)
Calls of active or inactive are those of the source. The calls are words filed in the database; no cut-off is given here.

What was measured:
[1] = test system: A-431; experiment: cells; conditions: Homo sapiens, A-431, 72 h
Description: Cytotoxicity against human A431 cells after 72 hrs by MTT assay

[2] = target: T1, Heat shock protein HSP90 (Homo sapiens) (UniProt P07900+P08238); experiment: Inhibition Hsp90 in human MDA-MB 231 cells assessed as reduction in CDK4 protein level at 0.5 and 5 uM incubated for 24 hrs by Western blot method; assay type: cell-based
[3] = test system: MDA-MB-231; experiment: Antitumor activity against human MDA-MB-231 cells xenografted in athymic nude mouse assessed as tumor growth inhibition at 10 mg/kg, iv dosed every 3 day for 15 consecutive days; assay type: functional; conditions: MDA-MB-231, 72 h, read-out: TGI
[4] = target: Heat shock protein HSP 90-alpha (Homo sapiens, UniProt P07900); experiment: Inhibition of GA-FITC binding to human recombinant Hsp90alpha incubated for 5 hrs by fluorescence polarization assay
[5] = cells; conditions: Homo sapiens, BGC-823, 72 h
Description: Cytotoxicity against human BGC823 cells after 72 hrs by MTT assay

[6] = cells; conditions: Homo sapiens, L02, 72 h
Description: Cytotoxicity against human HL7702 cells after 72 hrs by MTT assay

[7] = Safety index, ratio of IC50 for GA to IC50 for test compound against human HL7702 cells after 72 hrs by MTT assay; assay type: ADME, cell-based, L02; conditions: read-out: Ratio IC50
[8] = Safety index, ratio of IC50 for 17-AAG to IC50 for test compound against human HL7702 cells after 72 hrs by MTT assay; assay type: cell-based, L02; conditions: read-out: Ratio IC50
[9] = test system: Mus musculus; experiment: Hepatotoxicity in Kunming mouse assessed as serum alanine aminotransferase level at 10 mg/kg, iv (reference value: 60.7 +/- 6.9U/L); assay type: toxicity, organism-based; parameters: dose 10 mg/kg, route intravenous; conditions: in vivo
[10] = test system: MDA-MB-231; experiment: Antitumor activity against human MDA-MB-231 cells xenografted in athymic nude mouse assessed as reduction in tumor weight at 10 mg/kg, iv dosed every 3 day for 15 consecutive days; assay type: functional
[11] = target: T1, Heat shock protein HSP90 (Homo sapiens); experiment: Inhibition Hsp90 in human MDA-MB 231 cells assessed as reduction in AKT protein level at 0.5 and 5 uM incubated for 24 hrs by Western blot method; assay type: cell-based
[12] = Safety index, ratio of IC50 for GA to IC50 for test compound against HUVEC cells after 72 hrs by MTT assay; assay type: cell-based; conditions: human, read-out: Ratio IC50
[13] = test system: HUVEC; experiment: cells; conditions: Homo sapiens, 72 h
Description: Cytotoxicity against HUVEC cells after 72 hrs by MTT assay

[14] = test system: HeLa; experiment: cells; conditions: Homo sapiens, 72 h
Description: Cytotoxicity against human HeLa cells after 72 hrs by MTT assay

[15] = test system: SW480; experiment: cells; conditions: Homo sapiens, SW480, 72 h
Description: Cytotoxicity against human SW480 cells after 72 hrs by MTT assay

[16] = target: T1, Heat shock protein HSP90 (Homo sapiens); experiment: Inhibition Hsp90 in human MDA-MB 231 cells assessed as reduction in EGFR protein level at 0.5 and 5 uM incubated for 24 hrs by Western blot method; assay type: cell-based
[17] = Safety index, ratio of IC50 for 17-AAG to IC50 for test compound against HUVEC cells after 72 hrs by MTT assay; assay type: ADME, cell-based; conditions: human, read-out: Ratio IC50
[18] = test system: MDA-MB-231; experiment: cells; conditions: Homo sapiens, MDA-MB-231, 72 h
Description: Cytotoxicity against human MDA-MB-231 cells after 72 hrs by MTT assay

[19] = test system: A549; experiment: cells; conditions: Homo sapiens, A549, 72 h
Description: Cytotoxicity against human A549 cells after 72 hrs by MTT assay

[20] = test system: Mus musculus; experiment: Hepatotoxicity in Kunming mouse assessed as serum aspartate aminotransferase level at 10 mg/kg, iv (reference value: 197.2 +/- 11.2 U/L); assay type: toxicity, organism-based; parameters: dose 10 mg/kg, route intravenous; conditions: in vivo
[21] = target: T1, Heat shock protein HSP90 (Homo sapiens); experiment: Inhibition Hsp90 in human MDA-MB 231 cells assessed as reduction in HER2 protein level at 0.5 and 5 uM incubated for 24 hrs by Western blot method; assay type: cell-based
[22] = test system: HepG2; experiment: cells; conditions: Homo sapiens, HepG2, 72 h
Description: Cytotoxicity against human HepG2 cells after 72 hrs by MTT assay

With COc1cc(/C=C/C(=O)NCCCCCCNC2=C3C[C@@H](C)C[C@H](OC)[C@H](O)[C@@H](C)/C=C(\C)[C@H](OC(N)=O)[C@@H](OC)/C=C\C=C(/C)C(=O)NC(=CC2=O)C3=O)cc(OC)c1OC the IC50 [1] was 773 nM, the inhibition [2] was “Active” and the inhibition in vivo at 10 mg/kg [3] was 81%. It also gave an IC50 [4] of 290 nM, an IC50 [5] of 527 nM and an IC50 [6] of 4950 nM. It also gave a selectivity ratio at 72 h [7] of 35, a selectivity ratio at 72 h [8] of 50 and an Activity [9] of 40.4 U/L. The T/C [10] was 21%, the inhibition [11] was “Active” and the selectivity ratio at 72 h [12] was 68. The IC50 [13] was 1350 nM, the IC50 [14] was 284 nM and the IC50 [15] was 796 nM. The inhibition [16] was “Active”, the selectivity ratio at 72 h [17] was 5 and the IC50 [18] was 190 nM. For the same compound, the IC50 [19] was 278 nM, the Activity [20] was 181 U/L and the inhibition [21] was “Active”. It also gave an IC50 [22] of 562 nM.
Compound COC1=C2C[C@@H](C)C[C@H](OC)[C@H](O)[C@@H](C)/C=C(\C)[C@H](OC(N)=O)[C@@H](OC)/C=C\C=C(/C)C(=O)NC(=CC1=O)C2=O [GELDANAMYCIN] has an Activity [9] of 273 U/L and an Activity [20] of 317.2 U/L.
Work on COc1cc(/C=C/C(=O)NCCCCCCNC2=C3C[C@@H](C)C[C@H](OC)[C@H](O)[C@@H](C)/C=C(\C)[C@H](OC(N)=O)[C@@H](OC)/C=C\C=C(/C)C(=O)NC(=CC2=O)C3=O)ccc1O yielded an IC50 [4] of 470 nM, an Activity [9] of 72.7 U/L and an IC50 [18] of 270 nM. It also gave an Activity [20] of 199.3 U/L.
With COc1ccc(/C=C/C(=O)NCCCCCCNC2=C3C[C@@H](C)C[C@H](OC)[C@H](O)[C@@H](C)/C=C(\C)[C@H](OC(N)=O)[C@@H](OC)/C=C\C=C(/C)C(=O)NC(=CC2=O)C3=O)cc1OC the IC50 [4] was 410 nM, the Activity [9] was 52.8 U/L and the IC50 [18] was 300 nM. For the same compound, the Activity [20] was 193.4 U/L.
Work on C=CCNC1=C2C[C@@H](C)C[C@H](OC)[C@H](O)[C@@H](C)/C=C(\C)[C@H](OC(N)=O)[C@@H](OC)/C=C\C=C(/C)C(=O)NC(=CC1=O)C2=O [TANESPIMYCIN] yielded an IC50 [1] of 89 nM, an inhibition in vivo at 10 mg/kg [3] of 73% and an IC50 [5] of 847 nM. It also gave an IC50 [6] of 99 nM, an Activity [9] of 66.6 U/L and a T/C [10] of 28%. For the same compound, the IC50 [13] was 282 nM, the IC50 [14] was 128 nM and the IC50 [15] was 572 nM. The IC50 [18] was 280 nM, the IC50 [19] was 81 nM and the Activity [20] was 237.4 U/L. The IC50 [22] was 91 nM.
In the case of COc1cc(/C=C/C(=O)N2CCC(CNC3=C4C[C@@H](C)C[C@H](OC)[C@H](O)[C@@H](C)/C=C(\C)[C@H](OC(N)=O)[C@@H](OC)/C=C\C=C(/C)C(=O)NC(=CC3=O)C4=O)CC2)ccc1O, the IC50 [4] is reported as 1840 nM, the Activity [9] is reported as 148.6 U/L and the IC50 [18] is reported as 940 nM. For the same compound, the Activity [20] was 260.8 U/L.
For COc1cc(/C=C/C(=O)NCCCCNC2=C3C[C@@H](C)C[C@H](OC)[C@H](O)[C@@H](C)/C=C(\C)[C@H](OC(N)=O)[C@@H](OC)/C=C\C=C(/C)C(=O)NC(=CC2=O)C3=O)ccc1O, the IC50 [4] was 970 nM, the Activity [9] was 75.3 U/L and the IC50 [18] was 550 nM. It also gave an Activity [20] of 224.8 U/L.
In the case of CO[C@H]1/C=C\C=C(/C)C(=O)NC2=CC(=O)C(NCC3CCN(C(=O)c4ccccc4O)CC3)=C(C[C@@H](C)C[C@H](OC)[C@H](O)[C@@H](C)/C=C(\C)[C@@H]1OC(N)=O)C2=O, the IC50 [18] is reported as 1820 nM.
COc1ccc(OC)c(/C=C/C(=O)NCCCCCCNC2=C3C[C@@H](C)C[C@H](OC)[C@H](O)[C@@H](C)/C=C(\C)[C@H](OC(N)=O)[C@@H](OC)/C=C\C=C(/C)C(=O)NC(=CC2=O)C3=O)c1 gave an IC50 [18] of 8150 nM.
